In patent US9227969B2, “Compounds and compositions as inhibitors of MEK” (NOVARTIS AG, priority 2013, dated 2016):
Where two headings read alike, the source gives them in different places.

Tests used:
[1] = biological target: T1, human full length MEK1 kinase (Homo sapiens (Human), UniProt Q02750); conditions: read-out: MEK1 1 mM ATP IC50, BRAF-MEK-ERK cascade
Description: (§2) A BRAF-MEK-ERK cascade assay is used to evaluate the effects of these compounds as inhibitors of the MAP kinase pathway. […] TR-FRET (Time resolved fluorescence resonance energy transfer) detection technology is used for the read out.

[2] = biological target: T1, human full length MEK1 kinase; test: biochemical
Description: as §2

ABL1 = ABL1 (Homo sapiens (Human), UniProt P00519); test: Kinase Panel screen: ABL1; assay type: biochemical
Description: (§1) Compounds of the invention are screened, using assay conditions known in the art, against some or all of the “Kinase Panel” comprising ABL1, ABL1 (T315I), ACVR1, AKT1, ALK, AURKA, AXL, BTK, CAMK2D, CDK1B, CDK2A, CDK4D1, CSK, CSNK1G3, EGFR, EPHA4, EPHB4, ERBB4, FGFR1, FGFR2, FGFR3, FGFR3 (K650E), FGFR4, FLT3 (D835Y), IGF1R, GSK3B, INSR, IRAK4, JAK1, JAK2, JAK3, KDR, KIT, LCK, LYN, MAP3K8, MAPK1, MAPK10, MAPK14, MAPKAPK2, MAPKAPK5, MET, MKNK1, MKNK2, PAK2, PDGFRa, PDPK1, PIM2, PKN1, PKN2, PLK1, PRKACA, PRKCA, PRKCQ, RET, ROCK2, RPS6 KB1, SRC, SYK, TYK2, WNK1, ZAP70, PIKSCD, PIK3CG, MTOR, PIK3C3, PIK3CA, PIK3CB and PIK4CB.

LCK = LCK (Homo sapiens (Human), UniProt P06239); test: Kinase Panel screen: LCK; assay type: biochemical
Description: as §1

LYN = LYN (Homo sapiens (Human), UniProt P07948); test: Kinase Panel screen: LYN; assay type: biochemical
Description: as §1

PDGFRa = PDGFRa (Homo sapiens (Human), UniProt P16234); test: Kinase Panel screen: PDGFRa; assay type: biochemical
Description: as §1

T1 sequence (Q02750 whole entry): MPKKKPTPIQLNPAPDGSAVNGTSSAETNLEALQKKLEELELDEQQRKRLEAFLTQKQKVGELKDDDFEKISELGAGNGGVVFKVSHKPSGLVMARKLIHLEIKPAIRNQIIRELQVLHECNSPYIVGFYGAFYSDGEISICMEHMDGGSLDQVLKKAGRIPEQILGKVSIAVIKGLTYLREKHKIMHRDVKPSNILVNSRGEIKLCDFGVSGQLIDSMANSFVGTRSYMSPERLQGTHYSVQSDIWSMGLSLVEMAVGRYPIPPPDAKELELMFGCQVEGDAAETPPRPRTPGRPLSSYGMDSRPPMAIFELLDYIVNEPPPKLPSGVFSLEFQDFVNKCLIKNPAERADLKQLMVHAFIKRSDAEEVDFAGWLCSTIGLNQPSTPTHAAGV
Chain of PDGFRa (P16234 24-1089, species assumed): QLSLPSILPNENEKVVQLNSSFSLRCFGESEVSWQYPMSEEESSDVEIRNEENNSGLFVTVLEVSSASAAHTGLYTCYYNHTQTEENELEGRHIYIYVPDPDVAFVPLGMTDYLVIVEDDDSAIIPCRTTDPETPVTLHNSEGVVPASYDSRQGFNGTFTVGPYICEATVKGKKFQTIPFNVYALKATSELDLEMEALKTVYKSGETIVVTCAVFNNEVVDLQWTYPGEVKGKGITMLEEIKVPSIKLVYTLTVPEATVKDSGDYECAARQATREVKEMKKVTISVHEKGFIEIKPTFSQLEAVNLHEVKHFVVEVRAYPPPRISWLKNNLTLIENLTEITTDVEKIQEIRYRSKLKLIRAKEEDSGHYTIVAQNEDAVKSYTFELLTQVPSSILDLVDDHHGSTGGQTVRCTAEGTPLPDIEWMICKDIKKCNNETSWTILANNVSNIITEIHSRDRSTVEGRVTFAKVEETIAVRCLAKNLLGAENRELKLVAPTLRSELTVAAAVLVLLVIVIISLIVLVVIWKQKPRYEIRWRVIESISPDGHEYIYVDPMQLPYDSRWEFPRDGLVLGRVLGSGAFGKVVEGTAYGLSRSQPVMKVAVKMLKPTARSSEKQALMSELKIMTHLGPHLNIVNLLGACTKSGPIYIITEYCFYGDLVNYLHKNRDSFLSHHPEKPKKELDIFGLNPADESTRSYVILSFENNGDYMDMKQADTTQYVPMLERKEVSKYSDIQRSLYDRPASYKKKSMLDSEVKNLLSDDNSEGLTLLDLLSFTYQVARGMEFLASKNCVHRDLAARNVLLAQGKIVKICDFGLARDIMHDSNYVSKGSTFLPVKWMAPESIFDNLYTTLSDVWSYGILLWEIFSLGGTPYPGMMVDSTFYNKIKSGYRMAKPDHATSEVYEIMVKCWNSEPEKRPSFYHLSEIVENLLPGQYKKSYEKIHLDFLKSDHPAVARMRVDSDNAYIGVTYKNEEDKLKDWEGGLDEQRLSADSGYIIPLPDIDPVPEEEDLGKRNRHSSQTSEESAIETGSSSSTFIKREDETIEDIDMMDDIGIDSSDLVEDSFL
Chain of LYN (P07948 whole entry, species assumed): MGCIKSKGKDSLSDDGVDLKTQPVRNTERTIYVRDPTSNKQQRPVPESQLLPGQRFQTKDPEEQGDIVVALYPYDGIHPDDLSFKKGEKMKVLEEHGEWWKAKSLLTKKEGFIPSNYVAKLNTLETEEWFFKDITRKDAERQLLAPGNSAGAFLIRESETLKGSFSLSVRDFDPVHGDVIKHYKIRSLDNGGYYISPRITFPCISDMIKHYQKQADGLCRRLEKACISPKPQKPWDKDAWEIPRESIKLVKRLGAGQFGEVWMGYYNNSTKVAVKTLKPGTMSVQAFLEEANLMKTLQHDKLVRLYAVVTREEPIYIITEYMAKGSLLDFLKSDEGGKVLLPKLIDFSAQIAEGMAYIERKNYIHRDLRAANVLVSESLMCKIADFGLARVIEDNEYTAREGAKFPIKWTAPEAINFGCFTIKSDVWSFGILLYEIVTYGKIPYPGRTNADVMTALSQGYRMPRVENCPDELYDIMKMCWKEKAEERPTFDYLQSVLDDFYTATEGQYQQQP
Chain of ABL1 (P00519 whole entry, species assumed): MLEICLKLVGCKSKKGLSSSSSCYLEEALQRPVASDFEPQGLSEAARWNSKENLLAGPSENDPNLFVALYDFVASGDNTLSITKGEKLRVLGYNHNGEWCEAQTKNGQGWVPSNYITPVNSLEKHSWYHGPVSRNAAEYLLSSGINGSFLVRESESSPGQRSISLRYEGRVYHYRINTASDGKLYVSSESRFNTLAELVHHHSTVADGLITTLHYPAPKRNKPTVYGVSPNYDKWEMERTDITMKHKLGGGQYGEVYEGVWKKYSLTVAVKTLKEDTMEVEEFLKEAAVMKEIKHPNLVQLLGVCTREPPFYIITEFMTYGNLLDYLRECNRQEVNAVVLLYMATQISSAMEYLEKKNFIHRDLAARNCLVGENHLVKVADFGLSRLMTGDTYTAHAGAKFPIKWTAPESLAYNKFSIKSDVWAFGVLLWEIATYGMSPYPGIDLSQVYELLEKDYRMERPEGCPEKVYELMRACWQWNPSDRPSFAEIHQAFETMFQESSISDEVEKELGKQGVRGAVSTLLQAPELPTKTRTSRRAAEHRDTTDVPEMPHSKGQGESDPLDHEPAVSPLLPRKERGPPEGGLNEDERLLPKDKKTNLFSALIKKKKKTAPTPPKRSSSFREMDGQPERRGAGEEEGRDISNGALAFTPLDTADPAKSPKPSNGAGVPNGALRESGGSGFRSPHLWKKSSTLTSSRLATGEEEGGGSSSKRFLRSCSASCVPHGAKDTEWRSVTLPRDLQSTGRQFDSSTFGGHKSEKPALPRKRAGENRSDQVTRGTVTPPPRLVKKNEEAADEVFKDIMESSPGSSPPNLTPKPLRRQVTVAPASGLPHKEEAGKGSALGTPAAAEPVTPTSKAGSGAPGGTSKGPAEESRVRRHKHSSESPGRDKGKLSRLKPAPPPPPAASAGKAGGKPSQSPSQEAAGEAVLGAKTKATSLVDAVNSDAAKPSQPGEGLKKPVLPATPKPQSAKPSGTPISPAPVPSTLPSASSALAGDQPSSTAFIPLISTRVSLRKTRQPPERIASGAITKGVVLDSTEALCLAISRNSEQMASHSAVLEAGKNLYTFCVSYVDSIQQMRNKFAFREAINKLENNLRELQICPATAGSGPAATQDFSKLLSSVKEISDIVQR
Chain of LCK (P06239 whole entry, species assumed): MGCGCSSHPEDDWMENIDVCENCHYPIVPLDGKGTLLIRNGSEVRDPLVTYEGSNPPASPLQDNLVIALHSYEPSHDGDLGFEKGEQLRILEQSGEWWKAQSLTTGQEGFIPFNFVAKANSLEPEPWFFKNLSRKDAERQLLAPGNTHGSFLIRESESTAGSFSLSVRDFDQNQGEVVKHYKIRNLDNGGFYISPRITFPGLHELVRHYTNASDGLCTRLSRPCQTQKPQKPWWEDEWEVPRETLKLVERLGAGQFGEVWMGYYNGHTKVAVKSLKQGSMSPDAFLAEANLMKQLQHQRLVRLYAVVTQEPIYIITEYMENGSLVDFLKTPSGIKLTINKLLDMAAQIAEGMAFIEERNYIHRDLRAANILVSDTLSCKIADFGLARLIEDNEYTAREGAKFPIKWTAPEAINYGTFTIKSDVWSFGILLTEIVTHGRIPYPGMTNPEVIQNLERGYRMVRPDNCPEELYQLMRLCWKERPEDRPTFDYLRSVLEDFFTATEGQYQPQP

Row | SMILES | IC50 [1] | IC50 [2] | IC50 (ABL1) | IC50 (LCK) | IC50 (LYN) | IC50 (PDGFRa)
1 | Cc1nc2cnc3cc(F)c(-c4ccc(Oc5ncccn5)cc4Cl)cc3c2n1[C@H]1CCN(C(=O)CO)C[C@@H]1F [Example 1A, 1-((3S,4S)-4-(8-(2-chloro-4-(pyrimidin-2-yloxy)phenyl)-7-fluoro-2-methyl-1H-imidazo[4,5-c]quinolin-1-yl)-3-fluoropiperidin-1-yl)-2-hydroxyethanone] | 5 nM | 5 nM | – | – | – | –
2 | Cc1nc2cnc3cc(F)c(-c4ccc(Oc5ncccn5)cc4Cl)cc3c2n1[C@@H]1CCN(C(=O)CO)C[C@H]1F [Example 1B, 1-((3R,4R)-4-(8-(2-chloro-4-(pyrimidin-2-yloxy)phenyl)-7-fluoro-2-methyl-1H-imidazo[4,5-c]quinolin-1-yl)-3-fluoropiperidin-1-yl)-2-hydroxyethanone] | 138 nM | 138 nM | – | – | – | –
3 | COc1cc(Oc2ccccn2)ccc1-c1ccc2ncc3ncn(-c4ccc(CC#N)cc4)c3c2c1 [compound (B)] | – | – | 20 nM | 7 nM | 30 nM | 50 nM
